In brackets after ≈: the same amount, converted by molar mass. Like-named read-outs stand apart in the source and are kept apart here.
Legend:
resistant bacteria [1] = conditions: in words, background art; cited from earlier work
[2] = tested on: Pseudomonas aeruginosa A3; experiment: MIC, standard serial dilution on nutrient agar; format: cell-based
[3] = tested on: Escherichia coli K-12 ML 1629; experiment: MIC, standard serial dilution on nutrient agar; format: cell-based; conditions: K12ML1629, 37° C., 18 hours
[4] = tested on: Staphylococcus epidermides 109; experiment: MIC, standard serial dilution on nutrient agar; format: cell-based
[5] = tested on: Staphylococcus aureus APOI; experiment: MIC, standard serial dilution on nutrient agar; format: cell-based
Providencia Pv 37 = experiment: MIC, standard serial dilution on nutrient agar; format: cell-based; conditions: PV37, 37° C., 18 hours
Proteus rettgeri AUB = experiment: MIC, standard serial dilution on nutrient agar; format: cell-based; conditions: Providencia rettgeri
Pyocyanique = experiment: MIC, standard serial dilution on nutrient agar; format: cell-based; conditions: 18 h
Serratia 7 = experiment: MIC, standard serial dilution on nutrient agar; format: cell-based; conditions: Serratia, 7, 18 h
Erwinia 7-22 = experiment: MIC, standard serial dilution on nutrient agar; format: cell-based; conditions: 722, 37° C., 18 hours
Serratia CAT = experiment: MIC, standard serial dilution on nutrient agar; format: cell-based
Klebsiella THO = experiment: MIC, standard serial dilution on nutrient agar; format: cell-based
[6] = tested on: Staphylococcus aureus MS 9610; experiment: MIC, standard serial dilution on nutrient agar; format: cell-based
Providencia 19 = experiment: MIC, standard serial dilution on nutrient agar; format: cell-based; conditions: Providencia, 19, 18 h
[7] = tested on: Klebsiella pneumoniae 22 #3038; experiment: MIC, standard serial dilution on nutrient agar; format: cell-based
Providencia ZAO = experiment: MIC, standard serial dilution on nutrient agar; format: cell-based
Proteus vulgaris BAC = experiment: MIC, standard serial dilution on nutrient agar; format: cell-based
Sarcina lutea PCI 1001 = experiment: MIC, standard serial dilution on nutrient agar; format: cell-based; conditions: Micrococcus luteus, PCI1001, 18 h
Enterobacter HAU = experiment: MIC, standard serial dilution on nutrient agar; format: cell-based
[8] = tested on: Staphylococcus aureus 209P; experiment: MIC, standard serial dilution on nutrient agar; format: cell-based
[9] = tested on: Staphylococcus aureus MS 9883; experiment: MIC, standard serial dilution on nutrient agar; format: cell-based
Serratia BOT = experiment: MIC, standard serial dilution on nutrient agar; format: cell-based
Escherichia coli K-12 = experiment: MIC, standard serial dilution on nutrient agar; format: cell-based; conditions: K12, 37° C., 18 hours
Enterobacter 666 = experiment: MIC, standard serial dilution on nutrient agar; format: cell-based; conditions: 37° C., 18 hours
Klebsiella BRIA = experiment: MIC, standard serial dilution on nutrient agar; format: cell-based
Klebsiella HOU = experiment: MIC, standard serial dilution on nutrient agar; format: cell-based
resistant bacteria [10] = conditions: in words, from Table 1
Method: The minimum inhibitory concentrations (mcg/ml) of the new compounds of this invention against various microorganisms were determined according to a standard serial dilution method using nutrient agar incubation medium at 37° C., the estimation being made after 18 hours incubation. For comparison purpose, the MIC. of kanamycin A, amikacin and dibekacin was also determined under the same test conditions.

[11] = Serratia CAT, nutrient agar, 37° C., 18 hours, read-out: MIC.
[12] = Providencia ZAO, nutrient agar, 37° C., 18 hours, read-out: MIC.
[13] = Proteus vulgaris BAC, nutrient agar, 37° C., 18 hours, read-out: MIC.
[14] = Staphylococcus aureus 209P, nutrient agar, 37° C., 18 hours, read-out: MIC.
[15] = MS9883, Staphylococcus aureus MS 9883, nutrient agar, 37° C., 18 hours, read-out: MIC.
[16] = Klebsiella BRIA, nutrient agar, 37° C., 18 hours, read-out: MIC.
[17] = Pseudomonas aeruginosa, A3, 18 h
[18] = Staphylococcus aureus, MS9610, 18 h

Row | Compound | activity against resistant bacteria (resistant bacteria [1]) | MIC [3] | MIC ([5]; Staphylococcus aureus, 18 h) | MIC (Providencia Pv 37) | MIC (Proteus rettgeri AUB; 18 h) | MIC (Pyocyanique) | MIC (Serratia 7) | MIC (Erwinia 7-22) | MIC (Serratia CAT; [11]) | MIC (Klebsiella THO; Klebsiella, 18 h) | MIC (Providencia 19) | MIC (Providencia ZAO; [12]) | MIC (Proteus vulgaris BAC; [13]) | MIC (Sarcina lutea PCI 1001) | MIC (Enterobacter HAU; Enterobacter, 18 h) | MIC [8, 14] | MIC [9, 15] | MIC (Escherichia coli K-12) | MIC (Enterobacter 666) | MIC (Klebsiella BRIA; [16]) | also measured
1 | 1-N-((S)-2-hydroxy-4-aminobutyryl)-5-O-β-D-xylofuranosyl- or ribofuranosyl-neamine [butirosins] | active against some kanamycin- and ribostamycin-resistant bacteria | – | – | – | – | – | – | – | – | – | – | – | – | – | – | – | – | – | – | – | –
2 | NCC1CCC(O)C(OC2C(N)CC(NC(=O)C(O)CN)C(OC3OC(CO)C(O)C(N)C3O)C2O)O1 (racemic) [Compound No. 3, 1-N-(DL-2-hydroxy-3-aminopropionyl)-3',4'-dideoxykanamycin A] | – | 1.56 µg/mL (≈ 2.89 µM) | 1.56 µg/mL (≈ 2.89 µM) | 6.25 µg/mL (≈ 11.6 µM) | 6.25 µg/mL (≈ 11.6 µM) | 50 µg/mL (≈ 92.7 µM) | 6.25 µg/mL (≈ 11.6 µM) | 1.56 µg/mL (≈ 2.89 µM) | 12.5 µg/mL (≈ 23.2 µM) | 1.56 µg/mL (≈ 2.89 µM) | 6.25 µg/mL (≈ 11.6 µM) | 12.5 µg/mL (≈ 23.2 µM) | 3.12 µg/mL (≈ 5.78 µM) | 6.25 µg/mL (≈ 11.6 µM) | 25 µg/mL (≈ 46.3 µM) | 3.12 µg/mL (≈ 5.78 µM) | 3.12 µg/mL (≈ 5.78 µM) | 1.56 µg/mL (≈ 2.89 µM) | 1.56 µg/mL (≈ 2.89 µM) | 3.12 µg/mL (≈ 5.78 µM) | MIC ([2]; Pseudomonas aeruginosa A3, nutrient agar, 37° C., 18 hours, read-out: MIC.): 3.12 µg/mL (≈ 5.78 µM); MIC ([4]; Staphylococcus epidermides 109, nutrient agar, 37° C., 18 hours, read-out: MIC.): 3.12 µg/mL (≈ 5.78 µM); MIC ([6]; MS9610, Staphylococcus aureus MS 9610, nutrient agar, 37° C., 18 hours, read-out: MIC.): 3.12 µg/mL (≈ 5.78 µM); MIC ([7]; Klebsiella pneumoniae 22 #3038, nutrient agar, 37° C., 18 hours, read-out: MIC.): 3.12 µg/mL (≈ 5.78 µM); MIC (Serratia BOT; Serratia BOT, nutrient agar, 37° C., 18 hours, read-out: MIC.): 12.5 µg/mL (≈ 23.2 µM); MIC (Klebsiella HOU; Klebsiella HOU, nutrient agar, 37° C., 18 hours, read-out: MIC.): 3.12 µg/mL (≈ 5.78 µM)
3 | NCC[C@H](O)C(=O)N[C@@H]1C[C@H](N)[C@@H](O[C@H]2O[C@H](CN)[C@@H](O)[C@H](O)[C@H]2O)[C@H](O)[C@H]1O[C@H]1O[C@H](CO)[C@@H](O)[C@H](N)[C@H]1O [Amikacin, 1-N-((S)-2-hydroxy-4-aminobutyryl)-kanamycin A] | cannot be inactivated by the kanamycin-resistant bacteria | 1.56 µg/mL (≈ 2.66 µM) | 1.56 µg/mL (≈ 2.66 µM) | 12.5 µg/mL (≈ 21.3 µM) | – | 50 µg/mL (≈ 85.4 µM) | 12.5 µg/mL (≈ 21.3 µM) | 1.56 µg/mL (≈ 2.66 µM) | – | – | 12.5 µg/mL (≈ 21.3 µM) | – | – | 3.12 µg/mL (≈ 5.33 µM) | 50 µg/mL (≈ 85.4 µM) | – | 6.25 µg/mL (≈ 10.7 µM) | 1.56 µg/mL (≈ 2.66 µM) | 1.56 µg/mL (≈ 2.66 µM) | 6.25 µg/mL (≈ 10.7 µM) | MIC [2, 17]: 1.56 µg/mL (≈ 2.66 µM); MIC ([4]; Staphylococcus, 109, 18 h): 3.12 µg/mL (≈ 5.33 µM); MIC (Proteus rettgeri AUB; Proteus rettgeri AUB, nutrient agar, 37° C., 18 hours, read-out: MIC.): 6.25 µg/mL (≈ 10.7 µM); MIC (Serratia CAT; Serratia, 18 h): 12.5 µg/mL (≈ 21.3 µM); MIC (Klebsiella THO; Klebsiella THO, nutrient agar, 37° C., 18 hours, read-out: MIC.): 6.25 µg/mL (≈ 10.7 µM); MIC [6, 18]: 3.12 µg/mL (≈ 5.33 µM); MIC ([7]; Klebsiella pneumoniae, 18 h): 3.12 µg/mL (≈ 5.33 µM); MIC (Providencia ZAO; Providencia, 18 h): 12.5 µg/mL (≈ 21.3 µM); MIC (Proteus vulgaris BAC; Proteus vulgaris, 18 h): 3.12 µg/mL (≈ 5.33 µM); MIC ([8]; Staphylococcus aureus, 209P, 18 h): 3.12 µg/mL (≈ 5.33 µM); MIC (Serratia BOT; Serratia, 18 h): 12.5 µg/mL (≈ 21.3 µM); MIC (Klebsiella HOU; Klebsiella, 18 h): 12.5 µg/mL (≈ 21.3 µM)
4 | NCC1CCC(O)C(OC2C(N)CC(N)C(OC3OC(CO)C(O)C(N)C3O)C2O)O1 (stereo not drawn) [Compound No. 1, 3',4'-dideoxykanamycin A] | – | 6.25 µg/mL (≈ 13.8 µM) | – | > 100 µg/mL | > 100 µg/mL | > 100 µg/mL | > 100 µg/mL | > 100 µg/mL | 12.5 µg/mL (≈ 27.6 µM) | 6.25 µg/mL (≈ 13.8 µM) | 100 µg/mL (≈ 221 µM) | 12.5 µg/mL (≈ 27.6 µM) | 3.12 µg/mL (≈ 6.89 µM) | 12.5 µg/mL (≈ 27.6 µM) | – | 3.12 µg/mL (≈ 6.89 µM) | – | 6.25 µg/mL (≈ 13.8 µM) | 100 µg/mL (≈ 221 µM) | – | MIC [2, 17]: 6.25 µg/mL (≈ 13.8 µM); MIC ([4]; Staphylococcus, 109, 18 h): 6.25 µg/mL (≈ 13.8 µM); MIC ([5]; Staphylococcus aureus APOI, nutrient agar, 37° C., 18 hours, read-out: MIC.): 3.12 µg/mL (≈ 6.89 µM); antibacterial activity against various resistant bacteria (resistant bacteria [10]): remarkably higher antibacterial activity against various resistant bacteria than the parent kanamycin A; MIC [6, 18]: 6.25 µg/mL (≈ 13.8 µM); MIC ([7]; Klebsiella pneumoniae, 18 h): > 100 µg/mL; MIC (Enterobacter HAU; Enterobacter HAU, nutrient agar, 37° C., 18 hours, read-out: MIC.): 12.5 µg/mL (≈ 27.6 µM); MIC ([9]; Staphylococcus aureus, MS9883, 18 h): 6.25 µg/mL (≈ 13.8 µM); MIC (Serratia BOT; Serratia, 18 h): 50 µg/mL (≈ 110 µM); MIC (Klebsiella BRIA; Klebsiella, 18 h): > 100 µg/mL; MIC (Klebsiella HOU; Klebsiella, 18 h): > 100 µg/mL

Source: patent US4298727A, “3',4'-Dideoxykanamycin A and 1-N-(S)-α-hydroxy-ω-aminoalkanoyl) derivatives thereof” (Zaidan Hojin Biseibutsu Kagaku KenkyuKai, priority 1979, dated 1981)
